Among the data in US20080200454A1, “CARBON-LINKED TETRAHYDRO-PYRAZOLO-PYRIDINE MODULATORS OF CATHEPSIN S” (priority 2007, published 2008) are IC50 values, retold here.

The first assay deals with Recombinant human cathepsin S (CatS) (Homo sapiens, UniProt P25774). Nature of the assay: Recombinant human cathepsin S (CatS) inhibition assay, fluorogenic substrate Z-Valine-Valine-Arginine-AMC.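 Further: Baculovirus-expressed CatS in pH 5.0 sodium acetate buffer with DTT and NaCl, fluorescence read each minute over 20 min, inhibition derived from rate slope.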
Sequence of Recombinant human cathepsin S (CatS) (P25774 115-331): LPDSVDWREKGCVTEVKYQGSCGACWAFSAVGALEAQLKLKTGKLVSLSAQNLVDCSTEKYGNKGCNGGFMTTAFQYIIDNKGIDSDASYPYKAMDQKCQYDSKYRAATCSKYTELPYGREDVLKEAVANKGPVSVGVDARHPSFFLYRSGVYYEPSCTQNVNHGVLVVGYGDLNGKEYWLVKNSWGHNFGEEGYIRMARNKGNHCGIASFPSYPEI
Settings: not given
Turning to `CS(=O)(=O)N1CCc2c(c(-c3ccc(Cl)c(C#Cc4ccc5c(c4)CN[C@H](C(=O)O)C5)c3)nn2CCCN2CCOCC2)C1` [Example 199, (3S)-7-({2-Chloro-5-[5-(methylsulfonyl)-1-(3-morpholin-4-ylpropyl)-4,5,6,7-tetrahydro-1H-pyrazolo[4,3-c]pyridin-3-yl]phenyl}ethynyl)-1,2,3,4-tetrahydroisoquinoline-3-carboxylic acid], the IC50 was 60 nM. Consider `CC1COCCN1CCCn1nc(-c2ccc(Cl)c(C#Cc3ccc(Cl)c(CNCC(=O)O)c3)c2)c2c1CCN(C(N)=O)C2` (stereo in doubt) [Example 221, N-{[5-({5-[5-(Aminocarbonyl)-1-{3-[(3S)-3-methylmorpholin-4-yl]propyl}-4,5,6,7-tetrahydro-1H-pyrazolo[4,3-c]pyridin-3-yl]-2-chlorophenyl}ethynyl)-2-chlorophenyl]methyl}glycine], for which the IC50 was determined as 20 nM. On the same count and under the same terms, for `C[C@H]1COCCN1CCCn1nc(-c2ccc(Cl)c(C#Cc3ccc(Cl)c(COC4CCN(C(=O)OC(C)(C)C)C4)c3)c2)c2c1CCN(C(=O)C(N)=O)C2` (stereo partly drawn) [Example 559, tert-Butyl 3-[(5-{[5-(5-[amino(oxo)acetyl]-1-{3-[(3S)-3-methylmorpholin-4-yl]propyl}-4,5,6,7-tetrahydro-1H-pyrazolo[4,3-c]pyridin-3-yl)-2-chlorophenyl]ethynyl}-2-chlorobenzyl)oxy]pyrrolidine-1-carboxylate] the value was 100 nM. Turning to `CS(=O)(=O)N1CCc2c(c(-c3ccc(Cl)c(C#CCOc4ccccc4)c3)nn2CCCN2CCOCC2)C1` [Example 52, 3-[4-Chloro-3-(3-phenoxy-prop-1-ynyl)-phenyl]-5-methanesulfonyl-1-(3-morpholin-4-yl-propyl)-4,5,6,7-tetrahydro-1H-pyrazolo[4,3-c]pyridine], the IC50 amounted to 13500 nM.

For the compound `NC(=O)N1CCc2c(c(-c3ccc(Cl)c(C#Cc4ccc(Cl)c(C(=O)NCC5CCCNC5)c4)c3)nn2CCCN2CCSCC2)C1` (centres unmarked) [Example 583, 3-[4-Chloro-3-({4-chloro-3-[(piperidin-3-ylmethyl)carbamoyl]phenyl}ethynyl)phenyl]-1-(3-thiomorpholin-4-ylpropyl)-1,4,6,7-tetrahydro-5H-pyrazolo[4,3-c]pyridine-5-carboxamide], the IC50 worked out at 30 nM. For `CS(=O)(=O)N1CCc2c(c(-c3ccc(Cl)c(C#Cc4cccc5c4CNCC5)c3)nn2CCCN2CCOCC2)C1` [Example 366, 8-({2-Chloro-5-[5-(methylsulfonyl)-1-(3-morpholin-4-ylpropyl)-4,5,6,7-tetrahydro-1H-pyrazolo[4,3-c]pyridin-3-yl]phenyl}ethynyl)-1,2,3,4-tetrahydroisoquinoline], the IC50 stood at 680 nM.

With `CC(=O)N1CCc2c(c(-c3ccc(Cl)c(C#Cc4ccc(CNCc5ccc(Cl)cc5)cc4)c3)nn2CCCN2CCOC[C@@H]2C)C1` [Example 400, 1-(4-{[5-(5-Acetyl-1-{3-[(3S)-3-methylmorpholin-4-yl]propyl}-4,5,6,7-tetrahydro-1H-pyrazolo[4,3-c]pyridin-3-yl)-2-chlorophenyl]ethynyl}phenyl)-N-[(4-chlorophenyl)methyl]methanamine], the IC50 is 190 nM. The same measure, in the same setting: the value for `CC1CCCN(CCCc2cc(-c3nn(CCCN4CCC(N5CCCC5=O)CC4)c4c3CN(S(C)(=O)=O)CC4)ccc2Cl)C1` (centres unmarked) [Example 103, 1-{1-[3-(3-{4-Chloro-3-[3-(3-methyl-piperidin-1-yl)-propyl]-phenyl}-5-methanesulfonyl-4,5,6,7-tetrahydro-pyrazolo[4,3-c]pyridin-1-yl)-propyl]-piperidin-4-yl}-pyrrolidin-2-one] was 310 nM. As for `CS(=O)(=O)N1CCc2c(c(-c3ccc(Cl)c(CCCNS(=O)(=O)c4cccc([N+](=O)[O-])c4)c3)nn2CCCN2CCC(N3CCCC3=O)CC2)C1` [Example 96, N-{3-[2-Chloro-5-(5-methanesulfonyl-1-{3-[4-(2-oxo-pyrrolidin-1-yl)-piperidin-1-yl]-propyl}-4,5,6,7-tetrahydro-1H-pyrazolo[4,3-c]pyridin-3-yl)-phenyl]-propyl}-3-nitro-benzenesulfonamide], the half-maximal inhibitory concentration (IC50) came to 1200 nM.

Consider `CS(=O)(=O)N1CCc2c(c(-c3ccc(Cl)c(C#Cc4cccc(CC#N)c4)c3)nn2CCCN2CCOCC2)C1` [Example 4, (3-{2-Chloro-5-[5-methanesulfonyl-1-(3-morpholin-4-yl-propyl)-4,5,6,7-tetrahydro-1H-pyrazolo[4,3-c]pyridin-3-yl]-phenylethynyl}-phenyl)-acetonitrile], for which the IC50 stood at 750 nM.

The same assay, now with this note: CatS IC50.
Turning to `CC(C)CC#Cc1cc(-c2nn(C[C@@H](O)CN3CCC(C4CCNCC4)CC3)c3c2CN(S(C)(=O)=O)CC3)ccc1Cl` [Example 239, (2S)-1-(4,4′-Bipiperidin-1-yl)-3-{3-[4-chloro-3-(4-methylpent-1-yn-1-yl)phenyl]-5-(methylsulfonyl)-4,5,6,7-tetrahydro-1H-pyrazolo[4,3-c]pyridin-1-yl}propan-2-ol], the IC50 was 610 nM.

Regarding `C[C@H]1COCCN1CCCn1nc(-c2ccc(Cl)c(C#Cc3ccc(C(=O)NC[C@@H]4CCCN4)cc3)c2)c2c1CCN(C(=O)C(N)=O)C2` [Example 610, 4-{[5-(5-[Amino(oxo)acetyl]-1-{3-[(3S)-3-methylmorpholin-4-yl]propyl}-4,5,6,7-tetrahydro-1H-pyrazolo[4,3-c]pyridin-3-yl)-2-chlorophenyl]ethynyl}-N-[(2S)-pyrrolidin-2-ylmethyl]benzamide], the IC50 was 30 nM. Still for that read-out and setting: for `C[C@H]1COCCN1CCCn1nc(-c2ccc(Cl)c(C#Cc3ccc(Cl)c(CNC4CC4)c3)c2)c2c1CCN(C(=O)C(N)=O)C2` [Example 589, 2-(3-[4-Chloro-3-({4-chloro-3-[(cyclopropylamino)methyl]phenyl}ethynyl)phenyl]-1-{3-[(3S)-3-methylmorpholin-4-yl]propyl}-1,4,6,7-tetrahydro-5H-pyrazolo[4,3-c]pyridin-5-yl)-2-oxoacetamide] the value was 30 nM; for `CS(=O)(=O)N1CCc2c(c(-c3ccc(Cl)c(C#Cc4ccc(CNCc5cccnc5)cc4)c3)nn2CCCN2CCOCC2)C1` [Example 404, 1-[4-({2-Chloro-5-[5-(methylsulfonyl)-1-(3-morpholin-4-ylpropyl)-4,5,6,7-tetrahydro-1H-pyrazolo[4,3-c]pyridin-3-yl]phenyl}ethynyl)phenyl]-N-(pyridin-3-ylmethyl)methanamine], 370 nM; for `CS(=O)(=O)N1CCc2c(c(-c3ccc(Cl)c(C#Cc4cccc(CNCCCO)c4)c3)nn2CCCN2CCOCC2)C1` [Example 509, 3-({[3-({2-Chloro-5-[5-(methylsulfonyl)-1-(3-morpholin-4-ylpropyl)-4,5,6,7-tetrahydro-1H-pyrazolo[4,3-c]pyridin-3-yl]phenyl}ethynyl)phenyl]methyl}amino)propan-1-ol], 500 nM. Turning to `NC(=O)N1CCc2c(c(-c3ccc(Cl)c(C#Cc4ccc(CNCc5ccc(OC(F)F)cc5)cc4)c3)nn2CCCN2CCSCC2)C1` [Example 176], the IC50 is 230 nM. As for `CS(=O)(=O)N1CCc2c(c(-c3ccc(Cl)c(CCc4cccc(CNCc5ccccc5)c4)c3)nn2CCCN2CCOCC2)C1` [Example 535, 1-[3-(2-{2-Chloro-5-[5-(methylsulfonyl)-1-(3-morpholin-4-ylpropyl)-4,5,6,7-tetrahydro-1H-pyrazolo[4,3-c]pyridin-3-yl]phenyl}ethyl)phenyl]-N-(phenylmethyl)methanamine], the 50% inhibitory concentration (IC50) was found to be 640 nM.

For the compound `NC(=O)N1CCc2c(c(-c3ccc(Cl)c(C#Cc4ccc(CNCc5ccc(Cl)cc5)cc4)c3)nn2C[C@H](O)CN2CCSCC2)C1` [Example 252, (R)-3-(4-Chloro-3-{4-[(4-chloro-benzylamino)-methyl]-phenylethynyl}-phenyl)-1-(2-hydroxy-3-thiomorpholin-4-yl-propyl)-1,4,6,7-tetrahydro-pyrazolo[4,3-c]pyridine-5-carboxylic acid amide], the IC50 came out at 110 nM. On to `C[C@H]1COCCN1CCCn1nc(-c2ccc(Cl)c(C#Cc3ccc4c(c3)CCN(C3CC3)C4)c2)c2c1CCN(S(C)(=O)=O)C2` [Example 512, 6-({2-Chloro-5-[1-{3-[(3S)-3-methylmorpholin-4-yl]propyl}-5-(methylsulfonyl)-4,5,6,7-tetrahydro-1H-pyrazolo[4,3-c]pyridin-3-yl]phenyl}ethynyl)-2-cyclopropyl-1,2,3,4-tetrahydroisoquinoline], for which the IC50 is 220 nM. Regarding `NC(=O)N1CCc2c(c(-c3ccc(Cl)c(C#Cc4cccc(CNCc5ccccc5F)c4)c3)nn2CCCN2CCSCC2)C1` [Example 515, 3-(4-Chloro-3-{[3-({[(2-fluorophenyl)methyl]amino}methyl)phenyl]ethynyl}phenyl)-1-(3-thiomorpholin-4-ylpropyl)-1,4,6,7-tetrahydro-5H-pyrazolo[4,3-c]pyridine-5-carboxamide], the IC50 came out at 250 nM. In the case of `C[C@H]1COCCN1CCCn1nc(-c2ccc(Cl)c(C#Cc3ccc4c(c3)CCN(C)C4)c2)c2c1CCN(S(C)(=O)=O)C2` [Example 519, 6-({2-Chloro-5-[1-{3-[(3S)-3-methylmorpholin-4-yl]propyl}-5-(methylsulfonyl)-4,5,6,7-tetrahydro-1H-pyrazolo[4,3-c]pyridin-3-yl]phenyl}ethynyl)-2-methyl-1,2,3,4-tetrahydroisoquinoline], the IC50 was 400 nM. Take `C[C@H]1COCCN1CCCn1nc(-c2ccc(Cl)c(C#Cc3ccc(C(=O)NCCN4CCOCC4)cc3)c2)c2c1CCN(C(=O)C(N)=O)C2` [Example 169, 4-{[5-(5-[Amino(oxo)acetyl]-1-{3-[(3S)-3-methylmorpholin-4-yl]propyl}-4,5,6,7-tetrahydro-1H-pyrazolo[4,3-c]pyridin-3-yl)-2-chlorophenyl]ethynyl}-N-(2-morpholin-4-ylethyl)benzamide]: the 50% inhibitory concentration (IC50) came out at 50 nM.

Staying with this assay, now noted: read-out: CatS IC50; Table 4; average of results obtained.
“(2S)-1-(4,4′-Bipiperidin-1-yl)-3-[3-{4-chloro-3-[3-(diethylamino)prop-1-yn-1-yl]phenyl}-5-(methylsulfonyl)-4,5,6,7-tetrahydro-1H-pyrazolo[4,3-c]pyridin-1-yl]propan-2-ol [Example 471]”: the IC50 is 7420 nM.
